Measured values taken from patent publication US10206394B2, “Herbicidal compounds” (Syngenta Participations AG, priority 2014, dated 2019).
Where two headings read alike, the source gives them in different places.

Legend:
Experiment in all cases: Glasshouse assay for herbicidal activity (pre- and post-emergence), percentage phytotoxicity
Type in all cases: in vivo
[1] = system: Alopecurus myosuroides (ALOMY); conditions: Alopecurus myosuroides
Protocol: (§1) Test—Glasshouse Assay for Herbicidal Activity
(§2) Seeds of a variety of monocotyledonous and dicotyledonous test plants are sown in standard soil in pots. The plants are cultivated for one day (for pre-emergence (PRE)) or for about 12 days (for post-emergence (POST)) under controlled conditions in a glasshouse (warm climate species at 24/18° C., cool climate species at 20/16° C., both at day/night; 16 hours light; 65% humidity).
(§3) The test plants are then grown on, in a glasshouse (greenhouse) under controlled conditions (warm climate species at 24/18° C., cool climate species at 20/16° C., both at day/night; 16 hours light; 65% humidity) and are watered twice daily. 15 days after application of the test herbicide (15 DAA) (for post-emergence), and 20 days after application of the test herbicide (20 DAA) (for pre-emergence), the test plants are evaluated visually, and an assessed percentage phytotoxicity score is given for each herbicidal application on each plant species (with 100%=total damage to plant; 0%=no damage to plant).
(§4) The plant species tested are as follows: Alopecurus myosuroides (ALOMY), Avena fatua (AVEFA), Lolium perenne (LOLPE), Echinochloa crus-galli (ECHCG).

Avena fatua (AVEFA) = conditions: Avena fatua
Protocol: as §1, §2, §3, §4

[2] = system: Echinochloa crus-galli (ECHCG); conditions: Echinochloa crus-galli
Protocol: as §1, §2, §3, §4

Lolium perenne (LOLPE) = conditions: Lolium perenne
Protocol: as §1, §2, §3, §4

[3] = post-emergence, 360 h, post-emergence, 250 g/ha, 15 DAA, visual score (100%=total damage; 0%=no damage), read-out: ALOMY POST herbicidal activity (percentage phytotoxicity)
[4] = pre-emergence, 480 h, pre-emergence, 250 g/ha, 20 DAA, visual score (100%=total damage; 0%=no damage), read-out: ALOMY PRE herbicidal activity (percentage phytotoxicity)
[5] = post-emergence, 360 h, post-emergence, 250 g/ha, 15 DAA, visual score (100%=total damage; 0%=no damage), read-out: AVEFA POST herbicidal activity (percentage phytotoxicity)
[6] = pre-emergence, 480 h, pre-emergence, 250 g/ha, 20 DAA, visual score (100%=total damage; 0%=no damage), read-out: AVEFA PRE herbicidal activity (percentage phytotoxicity)
[7] = post-emergence, 360 h, post-emergence, 250 g/ha, 15 DAA, visual score (100%=total damage; 0%=no damage), read-out: ECHCG POST herbicidal activity (percentage phytotoxicity)
[8] = pre-emergence, 480 h, pre-emergence, 250 g/ha, 20 DAA, visual score (100%=total damage; 0%=no damage), read-out: ECHCG PRE herbicidal activity (percentage phytotoxicity)
[9] = post-emergence, 360 h, post-emergence, 250 g/ha, 15 DAA, visual score (100%=total damage; 0%=no damage), read-out: LOLPE POST herbicidal activity (percentage phytotoxicity)
[10] = pre-emergence, 480 h, pre-emergence, 250 g/ha, 20 DAA, visual score (100%=total damage; 0%=no damage), read-out: LOLPE PRE herbicidal activity (percentage phytotoxicity)

Structure (SMILES)	pest or weed control at 250 g/ha ([1]; post-emergence, 360 h, Rate 250 g/ha, post-emergence, assessed visually 15 DAA, 100%=total damage, 0%=no damage, read-out: Post-emergence herbicidal activity (percentage phytotoxicity) ALOMY POST)	pest or weed control at 250 g/ha ([1]; pre-emergence, 480 h, Rate 250 g/ha, pre-emergence, assessed visually 20 DAA, 100%=total damage, 0%=no damage, read-out: Pre-emergence herbicidal activity (percentage phytotoxicity) ALOMY PRE)	pest or weed control at 250 g/ha (Avena fatua (AVEFA); post-emergence, 360 h, Rate 250 g/ha, post-emergence, assessed visually 15 DAA, 100%=total damage, 0%=no damage, read-out: Post-emergence herbicidal activity (percentage phytotoxicity) AVEFA POST)	pest or weed control at 250 g/ha (Avena fatua (AVEFA); pre-emergence, 480 h, Rate 250 g/ha, pre-emergence, assessed visually 20 DAA, 100%=total damage, 0%=no damage, read-out: Pre-emergence herbicidal activity (percentage phytotoxicity) AVEFA PRE)	pest or weed control at 250 g/ha ([2]; post-emergence, 360 h, Rate 250 g/ha, post-emergence, assessed visually 15 DAA, 100%=total damage, 0%=no damage, read-out: Post-emergence herbicidal activity (percentage phytotoxicity) ECHCG POST)	pest or weed control at 250 g/ha ([2]; pre-emergence, 480 h, Rate 250 g/ha, pre-emergence, assessed visually 20 DAA, 100%=total damage, 0%=no damage, read-out: Pre-emergence herbicidal activity (percentage phytotoxicity) ECHCG PRE)	pest or weed control at 250 g/ha (Lolium perenne (LOLPE); post-emergence, 360 h, Rate 250 g/ha, post-emergence, assessed visually 15 DAA, 100%=total damage, 0%=no damage, read-out: Post-emergence herbicidal activity (percentage phytotoxicity) LOLPE POST)	pest or weed control at 250 g/ha (Lolium perenne (LOLPE); pre-emergence, 480 h, Rate 250 g/ha, pre-emergence, assessed visually 20 DAA, 100%=total damage, 0%=no damage, read-out: Pre-emergence herbicidal activity (percentage phytotoxicity) LOLPE PRE)	pest or weed control at 250 g/ha [1, 3]	pest or weed control at 250 g/ha [1, 4]	pest or weed control at 250 g/ha (Avena fatua (AVEFA); [5])	pest or weed control at 250 g/ha (Avena fatua (AVEFA); [6])	pest or weed control at 250 g/ha [2, 7]	pest or weed control at 250 g/ha [2, 8]	pest or weed control at 250 g/ha (Lolium perenne (LOLPE); [9])	pest or weed control at 250 g/ha (Lolium perenne (LOLPE); [10])
Cc1cc(C)c(C2C(=O)CC(C(C)C(=O)NCc3ncccc3Cl)C2=O)c(C)c1 (centres unmarked) [Compound A167]	20%	20%	70%	10%	80%	80%	60%	80%	–	–	–	–	–	–	–	–
Cc1cc(-c2ncc(Cl)cc2Cl)cc(C)c1C1C(=O)CC(CC(=O)NC(C)(C)C)C1=O (centres unmarked) [Compound A168]	–	–	–	–	–	–	–	–	90%	80%	90%	20%	100%	80%	100%	80%
CCCN(CC)C(=O)CC1CC(=O)C(c2c(C)cc(C)cc2C)C1=O (centres unmarked) [Compound A171]	–	–	–	–	–	–	–	–	70%	60%	70%	20%	70%	80%	80%	70%
Cc1cc(C)c(C2C(=O)CC(CC(=O)N3CCC(C)CC3)C2=O)c(C)c1 (centres unmarked) [Compound A172]	–	–	–	–	–	–	–	–	80%	80%	70%	40%	70%	80%	60%	90%
Cc1cc(C)c(C2C(=O)CC(CC(=O)N3CC(C)CC(C)C3)C2=O)c(C)c1 (centres unmarked) [Compound A173]	–	–	–	–	–	–	–	–	20%	50%	30%	10%	30%	10%	60%	80%
Cc1cc(C)c(C2C(=O)CC(CC(=O)NCC3CSC3)C2=O)c(C)c1 (centres unmarked) [Compound A174]	–	–	–	–	–	–	–	–	40%	–	0%	–	10%	–	0%	–
C=CCNC(=O)CC1CC(=O)C(c2c(C)cc(C)cc2C)C1=O (centres unmarked) [Compound A175]	–	–	–	–	–	–	–	–	80%	80%	90%	70%	90%	90%	90%	100%
COCCCNC(=O)CC1CC(=O)C(c2c(C)cc(C)cc2C)C1=O (centres unmarked) [Compound A176]	–	–	–	–	–	–	–	–	90%	90%	90%	90%	100%	100%	100%	100%
CCCCCNC(=O)CC1CC(=O)C(c2c(C)cc(C)cc2C)C1=O (centres unmarked) [Compound A177]	–	–	–	–	–	–	–	–	80%	100%	80%	60%	90%	90%	80%	100%
CCCCCCCNC(=O)CC1CC(=O)C(c2c(C)cc(C)cc2C)C1=O (centres unmarked) [Compound A178]	–	–	–	–	–	–	–	–	70%	20%	70%	0%	40%	80%	70%	80%
COCCOCCCNC(=O)CC1CC(=O)C(c2c(C)cc(C)cc2C)C1=O (centres unmarked) [Compound A179]	–	–	–	–	–	–	–	–	100%	100%	100%	90%	100%	80%	80%	90%
Cc1cc(C)c(C2C(=O)CC(CC(=O)NCC3(F)COC3)C2=O)c(C)c1 (centres unmarked) [Compound A180]	–	–	–	–	–	–	–	–	70%	40%	70%	0%	70%	20%	30%	0%
Cc1cc(C)c(C2C(=O)CC(CC(=O)NC3CC(F)C3)C2=O)c(C)c1 (centres unmarked) [Compound A181]	–	–	–	–	–	–	–	–	90%	90%	90%	90%	80%	90%	100%	100%
Cc1cc(C)c(C2C(=O)CC(CC(=O)NC3COC3)C2=O)c(C)c1 (centres unmarked) [Compound A182]	–	–	–	–	–	–	–	–	70%	70%	70%	20%	80%	0%	40%	70%
Cc1cc(C)c(C2C(=O)CC(CC(=O)NCC3CCC3)C2=O)c(C)c1 (centres unmarked) [Compound A184]	–	–	–	–	–	–	–	–	90%	90%	70%	0%	90%	90%	80%	90%
Cc1cc(C)c(C2C(=O)CC(CC(=O)NC3CC(F)(F)C3)C2=O)c(C)c1 (centres unmarked) [Compound A185]	–	–	–	–	–	–	–	–	80%	80%	80%	60%	70%	70%	70%	70%
Cc1cc(-c2nccs2)cc(C)c1C1C(=O)CC(CC(=O)NC(C)(C)C)C1=O (centres unmarked) [Compound A186]	–	–	–	–	–	–	–	–	40%	40%	30%	0%	80%	70%	60%	60%
Cc1cc(C)c(C2C(=O)CC(CC(N)=O)C2=O)c(C)c1 (centres unmarked) [Compound A187]	–	–	–	–	–	–	–	–	80%	80%	100%	90%	100%	90%	90%	100%
